# Measured values taken from PMC6624297 (Cell Death & Disease, 2019).
# Experiments:
# [1] = test system: H460 cells; assay: Transwell migration and wound healing, H460; assay type: cell-based, human; conditions: H460, 0.5, 1.0, 1.5 μM, 24 h
# Procedure: Cell migration ability was measured using transwell chambers (8-μm pore size; Corning Costar, Cambridge, MA, USA). For the transwell assay, A549 and H460 cells suspended in serum-free RPMI-1640 medium containing different concentrations of L14e (0, 0.5, 1.0, and 1.5 μM) were seeded into the upper chamber. The lower chamber contained RPMI-1640 medium supplemented with 20% serum. After 24 h incubation, the filters were fixed in methanol and stained with 0.1% crystal violet. The upper faces of the filters were gently abraded, and the lower faces with cells migrated across the filters were imaged and counted under the microscope. For wound healing assays, cells were placed into 6-well plates and cultured until 100% confluence. An artificial scratch was created using a 200 μL pipette tip. Add serum-free RPMI-1640 medium containing different concentrations of drugs. At 24 h after culturing in serum-free medium, wound closure images were captured in the same field under magnification. Cell healing rates were calculated by the fraction of cell coverage across the line. These experiments were performed in triplicate and repeated three times.
# [2] = test system: SK-MES-1 cells; assay: MTT assay SK-MES-1; assay type: cell-based
# [3] = test system: p-EGFR, p-AKT, p-ERK1/2; assay: Western blot EGFR signaling pathway, A549; assay type: cell-based, human; conditions: A549, 0.5, 1.0, 1.5 μM, 24 h, EGF 50 ng/ml
# Procedure: (§1) A549 cells, H460 cells and HUVECs were treated with different concentrations of compound L14e for 24 h. Primary antibodies (100 μL/cm^2): P53(10442-1-AP, Proteintech Group),caspase-3 (19677-1-AP, Proteintech Group), bax (50599-2-lg, Proteintech Group), bcl-2 (12789-1-AP, Proteintech Group), cleaved caspase-3 (25546-1-AP, Proteintech Group), β-actin (60008-1-lg, Proteintech Group), EGFR (ab21074, Abcam), AKT (#2920, Cell Signaling Technology), ERK1/2 (#4370, Cell Signaling Technology), VEGFR-2 (#9698, Cell Signaling Technology), p-EGFR (ab40815, Abcam), p-AKT (#4060, Cell Signaling Technology), p-ERK1/2 (#4695, Cell Signaling Technology), p-VEGFR-2 (#3770, Cell Signaling Technology), and GAPDH (ab181603, Abcam). The cellular levels of proteins were determined by standard Western blotting. Details were given in Supplementary Materials and Methods.
# (§2) A549 cells, H460 cells and HUVECs were treated with different concentrations of compound L14e for 24 h, and collected to establish their respective treatment groups. […]
# (§3) Extracted proteins were separated from each other using polyacrylamide electrophoresis on a 10 % gel (Beyotime Biotechnology Company, Shanghai, China) and transferred to a polyvinylidene fluoride (PVDF) membrane. […] Gray values of protein bands were quantitatively analyzed, with the gray value of β-actin(GAPDH) band as the reference.
# [4] = test system: IOSE80 cell line; assay: Selectivity index against IOSE80; assay type: cell-based; conditions: SI = CC50/IC50
# [5] = test system: HPAEpiC cell line; assay: Selectivity index against HPAEpiC; assay type: cell-based; conditions: SI = CC50/IC50
# [6] = test system: P53, caspase-3, bcl-2/bax, cleaved caspase-3; assay: Western blot apoptotic proteins, A549; assay type: cell-based, human; conditions: A549, 0.5, 1.0, 1.5 μM, 24 h
# Procedure: as §1, §2, §3
# [7] = test system: GES-1 cell line; assay: Selectivity index against GES-1; assay type: cell-based; conditions: SI = CC50/IC50
# [8] = test system: p-EGFR, p-AKT, p-ERK1/2; assay: Western blot EGFR signaling pathway, H460; assay type: cell-based, human; conditions: H460, 0.5, 1.0, 1.5 μM, 24 h, EGF 50 ng/ml
# Procedure: as §1, §2, §3
# [9] = test system: VEGF; assay: VEGF secretion ELISA in A549 supernatant; assay type: cell-based, human; conditions: ELISA of cell supernatant
# Procedure: Since the inhibitory effect of the compound on A549 cells was stronger than that of H460, the A549 cells were treated with different concentrations of L14e. Taking the supernatant of the cells to detect the change of VEGF content by ELISA assays, and the effect of the supernatant on the formation of endothelial cells was detected.
smiles,measurement,setting,value
"O=C(Nc1cccc(Cl)c1)Nc1ccccc1NS(=O)(=O)c1c[nH]c(=O)[nH]c1=O [Compound L14e, N'-(3-chlorophenyl)-2-(2,4-dihydroxypyrimidine-5-sulfonamido)phenyl urea]",effect on cell migration,[1],significantly inhibited the migration
same,inhibition of SK-MES-1 cells,[2],did not inhibit
same,expression of phosphorylated EGFR (Tyr1068) and AKT (Ser473),[3],significantly reduced
same,SI (Selectivity index) IOSE80,[4],8.79
same,SI (Selectivity index) HPAEpiC,[5],19.79
same,"expression of P53, bax, bcl-2, cleaved caspase-3",[6],"over expression of P53, up-regulation of bax and down-regulation of bcl-2"
same,SI (Selectivity index) GES-1,[7],8.58
same,expression of phosphorylated EGFR (Tyr1068) and AKT (Ser473),[8],significantly reduced
same,secretion of VEGF in A549 cells,[9],significantly reduce the secretion of VEGF
